Values of other authors, collected in US10596038B2, “Corneal denervation for treatment of ocular pain” (Journey1, Inc., priority 2009, dated 2020).

Details: after 24 hours

COc1cc(CNC(=O)CCCC/C=C/C(C)C)ccc1O [Capsaicin]
detectability in the blood: undetectable
